Test results as given in patent publication US20140341857A1, “COMBINATION OF ONCOLYTIC AD[…] HISTONE DEACETYLASE INHIBITORS” (INSTITUT GUSTAVE ROUSSY, priority 2011, published 2014).

Key:
HT29 = experiment: MTT assay, growth inhibition by HDACi after 48 h; assay type: cell-based
From the text: (§1) HT29, HCT116, SW480, SW620 colon adenocarcinomas cell lines, 911 human embryonic retinal cell lines and HEK293, a human embryonic kidney cell line expressing the adenoviral E1 protein were purchased from ATCC (American Tissue Culture Collection, Manassas, Va., USA).
HT29 and 911 were maintained in Dulbecco's modified Eagle's medium (DMEM; GIBCO) supplemented with 10% heat-inactivated fetal bovine serum (FBS; GIBCO).
(§2) First, three different histone deacetylase inhibitors: Trichostatin A (TSA), an hydroxamic acid; Valproic Acid (VPA), a short-chain aliphatic acid, and sodium butyrate (Nabu), a short-chain aliphatic acid, were evaluated for their ability to induce inhibition of the growth of these cells after 48 h of treatment using an MTT assay.

SW620 = experiment: MTT assay, growth inhibition by HDACi after 48 h; assay type: cell-based
Description: as §1
(§3) The same medium was used for SW480 and SW620 supplemented with 1 mM Sodium Pyruvate (Invitrogen/GIBCO)
as §2

SW480 = experiment: MTT assay, growth inhibition by HDACi after 48 h; assay type: cell-based; settings: SW480, 48 h of treatment
Description: as §1, §3, §2

HCT116 = experiment: MTT assay, growth inhibition by HDACi after 48 h; assay type: cell-based
Description: as §1
HCT116 were cultured, in Mc Coy's 5A mediums with 10% heat-inactivated-FBS.
as §2

[1] = system: E1A and fiber adenoviral proteins; experiment: Western blot of early (E1A) and late (fiber) adenoviral proteins in HT29 cells; assay type: cell-based
Description: For determining viral protein expression, HT29 cells (5·10^5) in MW6 medium were treated with Δ24 CRAd (MOI 15.6 vp/cell), with or without VPA. At different time points p.i. (24 h, 48 h, and 72 h), tumor cells were harvested and protein extracts were prepared in RIPA buffer (10 mM Tris base pH 8.8, NaCl 150 mM, EDTA 1 mM, NP-40 1%, deoxycholic acid 1%) supplemented with mini EDTA proteases (Roche laboratory). In order to quantify the expression of early (E1A) and late (fiber) adenoviral proteins, proteins (25 μg) were run into a NuPage (Invitrogen, France), transferred onto a nitrocellulose membrane, and probed with anti-fiber antibody (AB4 clone 4D2, THERMOSCIENTIFIC), anti-E1A antibody (sc-430, Santa Cruz), or (as a control) anti-actin antibody (Clone AC-15, SIGMA-ALDRICH) followed by HRP-conjugated secondary antibody.

HT29 cells [2] = experiment: Cell size and nucleus morphology, Giemsa staining; assay type: cell-based; settings: HT29, 72 h, CRAd MOI 15.6, VPA IC25/IC50
Description: HT29 cells in 6-well plates (5·10^5 cells/well) were untreated or treated with Δ24 CRAd (MOI 15.6 vp/cell), VPA (IC25, IC50) or both. After 72 h, cells were harvested, cytospined on slides, fixed with Wright and stained for 15 minutes in Giemsa solution. After washing, dry slides were mounted with a coverslip. Cells and nuclei observations were performed using phase-contrast microscopy.

γH2AX [3] = experiment: γH2AX expression, confocal microscopy in HT29 cells; assay type: cell-based; settings: HT29, 3 days, CRAd MOI 15.6, VPA IC25/IC50
Description: HT29 cells were seeded at 5·10^5 cells/well on 6-well plates and cultured overnight. Cells were treated with Δ24 CRAd (MOI 15.6 vp/cell), VPA (IC25, IC50) or both (CRAd+VPA), or with the non-replicative adenovirus AE18 during 72 h. Then non-adherent tumor cells and adherent tumor cells were detached with TrypLE™ Express (1X) (INVITROGEN) cytospined on slides (500 rpm, 5 min), washed with PBS and fixed with 4% paraformaldehyde for 30 min. After permeabilization with 0.5% Triton X-100 for 10 min, samples were blocked with 3% BSA for 30 min. Samples were exposed to primary antibodies (1:1,000 anti-γH2AX, for 1-2 h in PBS/BSA) followed by Alexa Fluor-conjugated secondary antibody staining for 1 h. When filamentous actin was also stained, tetramethyl-rhodamine B isothiocyanate-labeled phalloidin (SIGMA) was added with the secondary antibody incubation. Cells were washed four times with PBS after secondary antibody staining and then mounted on glass slides by using mounting medium with DAPI (VECTASHIELD; Vector Laboratories). All images were obtained by using the ZEISS LSM 510 confocal microscope.

HT29 cells [4] = experiment: LDH release cell death assay; assay type: cell-based; settings: HT29, day 3, CRAd MOI 15.6 or VPA IC25/IC50 alone
From the text: Colon carcinoma HT29 cells were untreated or treated with CRAd (MOI 15.6 vp/cell), VPA (IC25 or IC50) or both. After 3 days, cell death was quantified by determination of Lactate deshydrogenase (LDH) release in cell supernatant, using Tox Cytotoxicity Assay kit (TOX7, Sigma Aldrich, France). The results were expressed relative to total LDH level obtained with cells treated with identical conditions and permeabilized with triton 0.1%. The results (Mean+SD) are shown on FIG. 7. They are representative of two experiments.

γH2AX [5] = experiment: γH2AX expression, Western blot; assay type: cell-based; settings: CRAd MOI 15.6, VPA 10mM (the IC50 of HT29; cell line and time not given)
Description: Colon carcinoma HT29 and HCT116 cells (5·10^5) in MW6 were treated with Δ24 CRAd (MOI 15.6 vp/cell), with or without VPA (IC25 and IC50). At indicated time points p.i., the cells were harvested and protein extracts were prepared in RIPA buffer (10 mM Tris base pH 8.8, NaCl 150 mM, EDTA 1mM, NP-40 1%, deoxycholic acid 1%) supplemented with mini EDTA proteases (ROCHE LABORATORY). Protein extracts were sonicated and centrifuged. Then, protein extracts (25 μg) were run into a NuPage (INVITROGEN, France), transferred onto a nitrocellulose membrane, and probed with anti-phospho-H2AX (Ser139) antibody (clone JBW301, MILLIPORE) or anti-actin antibodies (AC-15, SIGMA-ALDRICH) followed by HRP-conjugated secondary antibody. γH2AX was quantified by IMAGE-J software and expressed as arbitrary units relative to untreated cells.

Δ24 CRAd = experiment: CRAd production in HT29 cells, plaque assay on 911 cells; assay type: cell-based; settings: HT29, CRAd MOI 15.6, VPA IC25 and IC50, 3 days
Description: Colon cancer HT29 cells (5·10^5) in 6-well plates were infected with Δ24 CRAd (MOI 15.6 vp/cell) alone or in combination with VPA (IC50 and IC25) in adequate medium with 2% FBS. After 1 h, 3 ml of growth medium with or without VPA was added. Then, cells were scrapped and cells and medium were harvested at different times post-infection (from day 1 to day 6). After submission of cells and medium to freeze-thaw cycles, the amount of infectious particles was determined by plaque assay on 911 cells and expressed as plaque forming unit (pfu)/ml.
In a second series of experimentations, HT29 cells (5·10^5 cells/well) in 6-well plates were infected with CRAd (MOI 15.6 vp/cell) with or without VPA (IC50 and IC25) in adequate medium supplemented with 2% FBS. After 1 h, 3 ml of growth medium with or without VPA was added. After 3 days, cells and medium were independently harvested and lysed by freeze-thaw cycles. Then, the amount of infectious particles was measured by plaque assay on 911 cells, and expressed as pfu/ml.

p21 = p21 expression, Western blot; assay type: cell-based; settings: HCT116, VPA IC25 and IC50, 24, 48, 72 h
Description: Colon cancer cells HT29 or HCT116 (5·10^5) in MW6 were treated with Δ24 CRAd (MOI 15.6 vp/cell), with or without VPA (IC25 and IC50). At 24, 48, and 72 h p.i., tumor cells were harvested and protein extracts were prepared in RIPA buffer (10 mM Tris base pH 8.8, NaCl 150 mM, EDTA 1 mM, NP-40 1%, deoxycholic acid 1%) supplemented with mini EDTA proteases (ROCHE LABORATORY). Proteins (25 μg) were run into a NuPage (INVITROGEN, France), transferred onto a nitrocellulose membrane, and probed with anti-p21/Waf1 mouse monoclonal antibody (EA10, CALBIOCHEM) and anti-actin antibody (AC-15, SIGMA-ALDRICH), followed by HRP-conjugated secondary antibody. p21 expression was quantified by IMAGE-J software and expressed as arbitrary units relative to untreated cells.

HT29 tumor xenografts = experiment: HT29 tumor xenograft growth in nude mice; assay type: in vivo, athymic NU/NU female mice
Description: HT29 cells (10^7 cells) in 100 μl PBS were injected subcutaneously into the right flank of athymic NU/NU female mice housed at the Institut Gustave Roussy.
First, the sensitivity of tumor xenografts to VPA treatment was evaluated. When tumors reached 70-100 mm^3, mice were injected intraperitoneally with VPA (200 mg/kg or 300 mg/kg) or PBS in a volume of 200 μl five consecutive days per week. Tumor volume was evaluated twice a week for 4 weeks by measuring with calipers.
In a second series of experimentation, when tumors reached 70-100 mm^3, mice were first injected subcutaneously with Δ24 CRAd, or with a non-replicative adenovirus (AdCO1, deleted of region E1) or with PBS three consecutive days and every 7 days for 4 weeks. In parallel and beginning at day 4, mice received intraperitoneal injection of VPA (300 mg/kg) or PBS in a volume of 200 μl five consecutive days per week until the end of the protocol. Tumor growth was measured twice a week for 4 weeks.

HT29 cells [6] = experiment: MTT cell survival after oncolytic adenovirus with or without HDACi; assay type: cell-based; settings: HT29, 3 days p.i., co-treatment with VPA and AE18
Description: Then the cells were treated with one of these HDACis (at concentrations in the range of IC50/2 and IC50) and transduced with the oncolytic adenovirus Δ24, at increasing multiplicity of infection (MOI). The survival of the cells at day 3 p.i. was evaluated using the MTT assay.
Colon carcinoma cells (HT29, HCT116, SW480, SW620) were plated in quadruplicates on 96-well plates (10^4 cells/well) and were treated with different MOI of Δ24 CRAd (ranging from 0 to 1000 vp/cell), VPA (0, IC25 or IC50) or a combination of CRAd and VPA. After 3 days, cell viability was measured with MTT assay and the results (means+SD) were expressed relative to non-infected cells treated with different VPA doses (0, IC25 and IC50). The results are representative of three experiments.
Colon carcinoma cells (HT29, HCT116) were treated in quadruplicates with Δ24 CRAd (MOI 15.6 vp/cell) without or with VPA (IC25 or IC50) and cell viability was measured at different time points thereafter using a MTT assay. The results (means+SD) were expressed relative to untreated or VPA (0, IC25 and IC50)-treated cells at the same time point. […] They are representative of two experiments.
The effects of a co-treatment with the oncolytic adenovirus Δ24 and the histone deacetylase inhibitor VPA on the survival of HT29 cells 3 days p.i. were compared with those of a co-treatment with VPA and the recombinant adenovirus AE18. […]

viral hexon protein = experiment: Immunohistochemistry of viral hexon protein in HT29 tumor xenografts; assay type: in vivo, mice; settings: tumors excised at day 10, VPA 300 mg/kg
Description: The effects of VPA on CRAd replication were also tested in vivo in HT29 tumor xenografts of mice injected with PBS, Δ24 CRAd, or VPA (300 mg/kg)+CRAd as described in Example 2 above. Tumors were excised at day 10, and expression of viral hexon protein was evaluated by immunohistochemistry. Tumors were fixed in FineFix (from IGR) paraffin-embedded, and cut into 4-μm-thick sections. Hematoxylin-eosin-safranin staining was performed on all of the xenografts for analysis of morphology. The polyclonal anti-adenovirus hexon protein antibody AB 1056 (CHEMICON INTERNATIONAL, Temecula, Calif.), diluted 1:300, was detected by a biotinylated rabbit antigoat immunoglobulin antibody streptavidin-horseradish peroxidase conjugate (DAKO), and the chromogen diaminobenzidine. Slides were counterstained with hematoxylin.

[7] = Homo sapiens, HT-29, HT29, 48 h of treatment
[8] = Homo sapiens, SW-620, SW620, 48 h of treatment
[9] = Homo sapiens, HCT-116, HCT116, 48 h of treatment

For `CCCC(=O)[O-].[Na+]` [Nabu, sodium butyrate], the IC50 (HT29; [7]) was 4 mM, the IC50 (SW620; [8]) was 3 mM and the IC50 (SW480; Homo sapiens) was 7 mM. It also gave an IC50 (HCT116; [9]) of 1 mM.

`CC(/C=C/C(=O)NO)=C\[C@@H](C)C(=O)c1ccc(N(C)C)cc1` [TSA, Trichostatin A] gave an IC50 (HT29; HT29, 48 h of treatment) of 0.00015 mM, an IC50 (SW620; SW620, 48 h of treatment) of 3.7e-05 mM and an IC50 (SW480) of 7.5e-05 mM. The IC50 (HCT116; HCT116, 48 h of treatment) was 3.5e-05 mM.

With `CCCC(CCC)C(=O)O` [VPA, Valproic Acid] the E1A expression ([1]; HT29, CRAd MOI 15.6, 24 h, 48 h, 72 h) was “did not modify E1A expression”, the “expression of the fiber protein” value ([1]; HT29, CRAd MOI 15.6, day 1) was “strongly diminished” and the “expression of the fiber protein” value ([1]; HT29, CRAd MOI 15.6, day 2 and 3) was “minor effect”. For the same compound, the “cell size and nucleus morphology” value (HT29 cells [2]) was “increase in cell size and cell nuclei with well-defined shape”, the “γH2AX expression (confocal microscopy)” value (γH2AX [3]) was “much less than CRAd” and the “LDH release compared to untreated cells” value (HT29 cells [4]) was “increase in LDH release”. The “level of γH2AX relative to untreated cells” value (γH2AX [5]) was 5.6 fold, the “viral content in cell-associated and extracellular fractions” value (Δ24 CRAd) was “reduction of viral content” and the IC50 (HT29; [7]) was 10 mM. For the same compound, the “increase in p21 expression compared to untreated cells” value (p21) was “up to 6 fold”, the IC50 (SW620; [8]) was 5 mM and the IC50 (SW480; Homo sapiens) was 10 mM. The “kinetic of tumor growth vs PBS” value (HT29 tumor xenografts; VPA 200 mg/kg intraperitoneally, five consecutive days per week, 4 weeks) was “No difference”, the “tumor growth vs PBS” value (HT29 tumor xenografts; VPA 300 mg/kg intraperitoneally, five consecutive days per week, 4 weeks) was “significant delay in tumor growth” and the toxicity (HT29 tumor xenografts; VPA 300 mg/kg intraperitoneally, mice) was “did not trigger significant toxicity”. For the same compound, the “tumor growth compared to PBS-injected mice” value (HT29 tumor xenografts; second series: virus subcutaneously three consecutive days every 7 days, VPA 300 mg/kg i.p. from day 4, 4 weeks) was “reduction of tumor growth”, the “effect of VPA on the cytotoxicity of the recombinant adenovirus AE18” value (HT29 cells [6]) was “no effect” and the “amount of hexon protein in the tumor” value (viral hexon protein) was “decreased”. For the same compound, the IC50 (HCT116; [9]) was 1.2 mM.
